Reference: US11369594B2, “Cytotoxic actin-targeting compounds” (priority 2017, dated 2022)
Entries after “also recorded” stand apart in the source; their conditions may differ.

Tests used:
[1] = test system: F-actin in SKOV3 cells expressing LifeAct-GFP; assay: Live cell confocal imaging of LifeAct-GFP reporter (F-actin disruption); format: cell-based; settings: 0-2 hours
Method: To visualize effects of analogs on cellular F-actin dynamics, several cancer cell lines were transduced with a lentivirus expressing a green fluorescent protein (GFP) fusion with LifeAct, a 17 amino-acid protein containing the actin-binding domain of a yeast protein. To produce this lentivirus, 500,000 HEK293T cells were seeded on a 6-well plate coated with 0.01 mg/ml of poly-lysine solution. 24 hours later viral packing plasmids Pax2 (1 ug) and MD2G (0.5 ug) were mixed in serum free media with 1 ug of pLenti.PGK.LifeAct-GFP.W (Addgene Catalogue No. 51010), and 10 uL of Xtreme-Gene (Roche, Germany) were then added to the master mix. The mix was vortexed and incubated at room temperature for 15 minutes before being added in a drop-wise manner to HEK293T cells. After 24 hours, HCC1954, SKBR3 or SKOV3 cells were seeded in a 6-well plate and incubated at 37° C. for 24 hours. The virus-containing media from the HEK293T cells media was collected and filtered (0.45 μm). HCC1954, SKBR3 or SKOV3 cells were incubated with 0.5 mL virus-containing media, and incubated at 37° C. for 2-3 days. Efficiency of transduction was determined by visualizing GFP positive cells using fluorescence microscopy. […]
Disruption of filamentous actin (F-actin) in HER2 cancer cells was measured using live cell confocal imaging of LifeAct-GFP reporter. […]

F-actin in SKOV3 cells = assay: F-actin staining (TRITC-Phalloidin) fluorescence micrographs; format: cell-based; settings: 2 or 20 hours
Method: Referring to FIG. 12, representative fluorescence micrographs are shown of SKOV3 cells treated with DMSO (1%), Myc B (25 nM), or indicated analog (10 μM) for 2 or 20 hours prior to staining of F-actin (TRITC-Phalloidin). the effects of Myc B analog treatments over 20 hours are compared with DMSO and Myc B in HER2 cancer cells. […] As described in Example 37, disruption of filamentous actin (F-actin) in HER2 cancer cells was measured using live cell confocal imaging of LifeAct-GFP reporter. The LifeAct-GFP signal in DMSO control conditions indicates the localization of F-actin structures in SKOV3 cells. […] Compounds described herein can be used to treat such actin-related problems because of their efficacy in disrupting actin, as shown by studies described in the Examples and Figures herein.

SKOV3 (ovarian) cells = assay: IncuCyte PI uptake assay of cytotoxicity; format: cell-based; settings: 48 hours of treatment, compared to DMSO control
Method: The cytotoxicity of analogs was determined by using a PI uptake assay. HCC1954, SKBR3 or SKOV3 cells (2,000) were seeded in a 96-well plate. Treatments were prepared in 2% FBS containing media with 1 μM PI, and imaged using the IncuCyte Zoom Live Cell Analysis System equipped with a 10× objective. Phase contrast and fluorescent images were acquired every 2-3 hours for 48 hours. Several parameters are available upon analysis utilizing the IncuCyte Zoom Analysis tools including number of PI positive cells and cell confluence. See FIG. 8 for plots of SKOV3 cell analog cytotoxicity and HCC1954 cell analog cytotoxicity for specified treatments.
Cytotoxicity effects of Myc B and analogs in HER2 cancer cells was studied. Specifically, SKOV3 (ovarian) and HCC1954 (breast) cells were incubated with DMSO (1%) or analog (12.5-50 μM) in DMEM supplemented with 2% FBS and PI (1 μM) using an IncuCyte Zoom Live Cell Analysis System for 48 hours. As shown in FIGS. 10A-Q, graphs depict the number of PI positive for SKOV3 cells (left) and HCC1954 cells (right) over 48 hours of treatment with DMSO or indicated analog (12.5-50 μM).

[2] = test system: HER2+ SKOV3 subcutaneous tumor xenograft; assay: SKOV3 subcutaneous tumor xenograft study; format: in vivo, Rag2−/−:IL2Rγc−/− mice
Method: Referring to FIGS. 3A and 3B, a proof-of-principle study of the anticancer effects of MycB in a SKOV3 tumor xenograft model. […] Following the detection of palpable tumors, mice were randomized between vehicle control (DMSO), MycB (100 ng, intratumoral), TZ (50 μg, intraperitoneal), or both MycB and TZ (same doses/delivery) twice weekly until endpoint was reached (n=6/group; significant differences between treatment groups based on ANOVA are indicated by *P<0.05, **** P<0.0001).
The anti-tumor effects of MycB analogs are also expected to extend to other cancer types with selection of appropriate antibodies for these tumor types with novel ADC formulations.

[3] = test system: HER2+ cell migration and invasion (SKOV3 cells); assay: Cell migration and invasion assays (IncuCyte scratch wound, spheroid reattachment); format: cell-based; settings: sub-lethal doses (low nM)
Method: Effects of analogs on cellular motility including invasion and migration were evaluated using the IncuCyte Live Cell System. 25,000 SKOV3 cells were plated on a 96-well ImageLock coated with 10 μg/ml of human fibronectin. Once the cells reached approximately 90% confluence a scratch/wound is induced using the IncuCyte Woundmaker (a 96-pin would making tool). The cells were then rinsed with sterile PBS then media, with or without treatment was added. To evaluate invasion 5% Matrigel was added. The plate was then inserted into the IncuCyte Zoom Live Cell Analysis System and imaged at 10× magnification every 2-3 hours following until wound closure or 48 hours.
The percentage of wound confluence, for migration, or would density, for invasion, was determined through the IncuCyte ZOOM Scratch Wound Analysis tool adjusted to cell line dependent processing definitions. See FIGS. 5 to 6 for images and graphical results.
A three-dimensional (3D) spheroid reattachment assay was performed to further evaluate analog effects on migration and invasion. A round bottom 96-well was coated with polyhydroxyehylmethacrylate (poly-hema) to create a non-adhesive conditions upon which cancer cells can form a 3D spheroid. […]
The percentage of migration/invasion was calculated using ImageJ (NIH) by measuring the area of migration or invasion and subtracting the intial size of the spheroid. […]

[4] = test system: SKBR3, MDA-MB-453 and SKOV3 cells; assay: Cell viability, Trypan blue exclusion assay; format: cell-based; settings: multiple cancer cell lines
Method: Referring to FIG. 1A-C, the cytotoxicity of MycB on HER2+ breast and ovarian cancer cells was measured. Specifically, data is provided regarding the percentage of viable cells following treatment with MycB at 0-200 nM concentrations for 48 hours using SKBR3, MDA-MB-453 and SKOV3 cells. Cell viability was determined using Trypan blue exclusion assay (both unstained and stained cells were counted on a hemocytometer; values are mean±SEM of triplicate experiments).

[5] = test system: HER2 cancer cells SKOV3 (ovarian) and HCC1954 (breast); assay: Growth suppression of HER2 cancer cells (cell confluence change, live cell imaging); format: cell-based; settings: analogs 25 μM, Lapatinib 25 μM as comparator
Method: Growth suppression of HER2 cancer cells by select Myc B analogs was studied to determine rate of growth of HER2 cancer cells (SKOV3 (ovarian) and HCC1954 (breast)) as measured using a live cell imaging system. Findings are shown in FIGS. 9A and 9B, SKOV3 Ovarian cancer and HCC1954 Breast cancer cells were incubated with DMSO (1%), Myc B (25 nM), or the indicated analogs (25 μM), or with HER2 inhibitor Lapatinib (25 μM) in DMEM supplemented with 2% FBS and PI (1 μM) using an IncuCyte Zoom Live Cell Analysis System for 48 hours. Graphs depict the percent change in confluence at 48 hours compared to time zero (significant differences from DMSO *p<0.05, **p<0.01, ***p<0.001).

Question: Which results are given for `COC[C@@H](OC)C(=O)O[C@H](CC[C@H](C)[C@@H](C[C@@H]1OC(=O)C[C@@H](O)C/C=C/C(=O)[C@H](C)[C@H](OC)c2coc(n2)-c2coc(n2)-c2coc(n2)/C=C/C[C@H](OC)[C@H]1C)OC)[C@H](C)[C@H](OC(C)=O)[C@H](C)/C=C/N(C)C=O` [MycB, Mycalolide B]?
Answer: F-actin structures (LifeAct-GFP signal) ([1]; Myc B 25 nM): time-dependent collapse of F-actin into large aggregates near the cell periphery; Localization of endogenous F-actin (TRITC-Phalloidin) (F-actin in SKOV3 cells; Myc B 25 nM): disruption of F-actin at the cell periphery and collapse into large aggregates in the cytoplasm of the cells; Cytotoxicity: number of PI positive cells (PI uptake) (SKOV3 (ovarian) cells): significant increase in PI uptake; Growth of SKOV3 tumors (tumor volume and mass) ([2]; MycB 100 ng intratumoral in combination with TZ 50 μg intraperitoneal, twice weekly): reduced growth of SKOV3 tumors; also recorded: potential improvement when combined with TZ (Herceptin) on limiting tumor growth and metastasis; Growth of SKOV3 tumors (tumor volume and mass) ([2]; MycB alone, 100 ng intratumoral twice weekly): reduced growth of SKOV3 tumors; also recorded: anti-tumor effects of MycB on tumor volume and mass were demonstrated; Inhibition of cell motility and invasiveness [3]: significant inhibition of cell motility and invasiveness; Cytotoxicity in cancer cell lines [4]: cytotoxicity in multiple cancer cell lines

Question: Which “Localization of endogenous F-actin (TRITC-Phalloidin)” value (F-actin in SKOV3 cells; analogs 10 μM) does the source give for `CCC(=O)O[C@H](CC)C[C@H](OC)[C@@H](C)CC[C@@H](OC(=O)[C@@H](C)OC)[C@H](C)[C@H](OC)[C@H](C)/C=C/N(C)C=O` [4h] here?
Answer: most highly disruptive of F-actin

Question: With `CCC(=O)O[C@H](CC)C[C@H](OC)[C@@H](C)CC[C@@H](OC(=O)C(C)C)[C@H](C)[C@H](OC)[C@H](C)/C=C/N(C)C=O` [4g] as the molecule, how does the “Localization of endogenous F-actin (TRITC-Phalloidin)” value (F-actin in SKOV3 cells; analogs 10 μM) read?
Answer: most highly disruptive of F-actin

Question: With `CCCO[C@H](CC)C[C@H](OC)[C@@H](C)CC[C@@H](OC(=O)C(C)C)[C@H](C)[C@H](OC)[C@H](C)/C=C/N(C)C=O` [4f] as the molecule, how does the “F-actin structures (LifeAct-GFP signal)” value ([1]; analogs 10 μM) read?
Answer: limited effects at early time points

Question: What about the “Cytotoxicity: number of PI positive cells (PI uptake)” value (SKOV3 (ovarian) cells) of the same molecule?
Answer: significant cytoxicity response

Question: What about the “Growth suppression: percent change in confluence at 48 hours compared to time zero” value [5] of the same molecule?
Answer: potent analog was seen in 4f (2534), with comparable effects of the HER2 inhibitor Lapatinib
